According to patent US12110294B2, “CD73 compounds” (Gilead Sciences, Inc., priority 2020, dated 2024):

Biological target: T1, CD73 activity in MDA-MB-231-GFP cells (Homo sapiens, UniProt P21589)
T1 construct: endogenous in cells; host or cells: MDA-MB-231-GFP cells
T1 sequence (P21589 27-549): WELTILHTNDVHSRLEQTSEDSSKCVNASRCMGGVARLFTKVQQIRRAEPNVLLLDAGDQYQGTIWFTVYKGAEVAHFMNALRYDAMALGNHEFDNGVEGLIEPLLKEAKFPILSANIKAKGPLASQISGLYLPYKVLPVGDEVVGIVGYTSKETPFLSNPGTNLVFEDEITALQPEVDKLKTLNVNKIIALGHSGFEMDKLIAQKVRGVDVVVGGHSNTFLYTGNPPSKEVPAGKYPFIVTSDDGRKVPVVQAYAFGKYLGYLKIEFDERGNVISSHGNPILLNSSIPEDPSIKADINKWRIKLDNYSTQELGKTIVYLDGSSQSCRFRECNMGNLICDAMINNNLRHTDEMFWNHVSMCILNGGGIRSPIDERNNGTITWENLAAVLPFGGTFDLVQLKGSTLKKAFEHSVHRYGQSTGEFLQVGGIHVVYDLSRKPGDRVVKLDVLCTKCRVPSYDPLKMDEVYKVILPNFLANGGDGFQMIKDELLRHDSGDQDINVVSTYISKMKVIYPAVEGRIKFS
Assay: MDA-MB-231 Cell Based CD73 Activity Assay (DMEM)
Settings: 3000 cells per well, DMEM medium with 10% human plasma, overnight compound treatment, AMP 200 uM
Experimental: MDA-MB-231 Cell Based CD73 Activity Assay (DMEM) MDA-MB-231-GFP cells were seeded in 384-well plates (Greiner 781946) at a density of 3000 cells per well in 50 μL of DMEM medium with 10% HP (human plasma). Cells were plated into assay plate with compounds pre-spotted, for an overnight compound treatment. 50 uL of 400 uM AMP (final concentration will be 200 uM) was added using Bio-tek dispenser. Plates were incubated for 100 mins. […] The samples were analyzed using Rapid fire.

Compound	EC50 [nM]
Cn1cc([C@H]2C[C@@H]2c2cc(-c3c[nH]c(=O)[nH]c3=O)nn3ccnc23)ccc1=O (racemic) [Example 184, 5-(8-((1S,2S)-2-(1-methyl-6-oxo-1,6-dihydropyridin-3-yl)cyclopropyl)imidazo[1,2-b]pyridazin-6-yl)pyrimidine-2,4(1H,3H)-dione]	9.45
CC1(C)C(=O)N(CC(F)(F)F)c2cc([C@H]3C[C@@H]3c3cc(-c4c[nH]c(=O)[nH]c4=O)nn4c(Cl)cnc34)ccc21 (racemic) [Example 212, 5-[3-chloro-8-[(1S,2S)-2-[3,3-dimethyl-2-oxo-1-(2,2,2-trifluoroethyl)indolin-6-yl]cyclopropyl]imidazo[1,2-b]pyridazin-6-yl]-1H-pyrimidine-2,4-dione]	0.72
O=c1[nH]cc(-c2cc([C@H]3C[C@@H]3c3ccc4c(F)nn(CC(F)(F)F)c4c3)c3ncc(Cl)n3n2)c(=O)[nH]1 (racemic) [Example 213, 5-[3-chloro-8-[(1S,2S)-2-[3-fluoro-1-(2,2,2-trifluoroethyl)indazol-6-yl]cyclopropyl]imidazo[1,2-b]pyridazin-6-yl]-1H-pyrimidine-2,4-dione]	0.45
O=c1[nH]cc(-c2cc([C@H]3C[C@@H]3c3ccc4ncsc4c3)c3nccn3n2)c(=O)[nH]1 (racemic) [Example 276, 5-(8-((1S,2S)-2-(benzo[d]thiazol-6-yl)cyclopropyl)imidazo[1,2-b]pyridazin-6-yl)pyrimidine-2,4(1H,3H)-dione]	2.78
O=c1[nH]cc(-c2cc([C@H]3C[C@@H]3c3ccc4c(c3)OC(F)(F)O4)c3ncc(F)n3n2)c(=O)[nH]1 (racemic) [Example 278, 5-(8-((2S,2S)-2-(2,2-difluorobenzo[d][1,3]dioxol-5-yl)cyclopropyl)-3-fluoroimidazo[1,2-b]pyridazin-6-yl)pyrimidine-2,4(1H,3H)-dione]	38.9
O=c1[nH]cc(-c2cc([C@H]3C[C@@H]3c3ccc(OC(F)(F)F)cc3F)c3nccn3n2)c(=O)[nH]1 (racemic) [Example 280, 5-(8-((1S,2S)-2-(2-fluoro-4-(trifluoromethoxy)phenyl)cyclopropyl)imidazo[1,2-b]pyridazin-6-yl)pyrimidine-2,4(1H,3H)-dione]	77.8
COC(=O)c1cccc([C@H]2C[C@@H]2c2cc(-c3c[nH]c(=O)[nH]c3=O)nn3ccnc23)c1 (racemic) [Example 282, methyl 3-((2S,2S)-2-(6-(2,4-dioxo-1,2,3,4-tetrahydropyrimidin-5-yl)imidazo[1,2-b]pyridazin-8-yl)cyclopropyl)benzoate]	11.7
NC(=O)c1cccc([C@H]2C[C@@H]2c2cc(-c3c[nH]c(=O)[nH]c3=O)nn3ccnc23)c1 (racemic) [Example 284, 3-((1S,2S)-2-(6-(2,4-dioxo-1,2,3,4-tetrahydropyrimidin-5-yl)imidazo[1,2-b]pyridazin-8-yl)cyclopropyl)benzamide]	3.49
CNC(=O)c1cccc([C@H]2C[C@@H]2c2cc(-c3c[nH]c(=O)[nH]c3=O)nn3ccnc23)c1 (racemic) [Example 286, 3-((2S,2S)-2-(6-(2,4-dioxo-1,2,3,4-tetrahydropyrimidin-5-yl)imidazo[1,2-b]pyridazin-8-yl)cyclopropyl)-N-methylbenzamide]	2.42
CN(C)C(=O)c1cccc([C@H]2C[C@@H]2c2cc(-c3c[nH]c(=O)[nH]c3=O)nn3ccnc23)c1 (racemic) [Example 287, 3-((2S,2S)-2-(6-(2,4-dioxo-1,2,3,4-tetrahydropyrimidin-5-yl)imidazo[1,2-b]pyridazin-8-yl)cyclopropyl)-N,N-dimethylbenzamide]	12.5
O=C(c1ccc([C@H]2C[C@@H]2c2cc(-c3c[nH]c(=O)[nH]c3=O)nn3ccnc23)cc1)N1CC(C(F)(F)F)C1 (racemic) [Example 291, 5-(8-((1S,2S)-2-(4-(3-(trifluoromethyl)azetidine-1-carbonyl)phenyl)cyclopropyl)imidazo[1,2-b]pyridazin-6-yl)pyrimidine-2,4(1H,3H)-dione]	18.6
O=C(c1cccc([C@H]2C[C@@H]2c2cc(-c3c[nH]c(=O)[nH]c3=O)nn3ccnc23)c1)N1CCC1 (racemic) [Example 294, 5-(8-((2S,2S)-2-(3-(azetidine-1-carbonyl)phenyl)cyclopropyl)imidazo[1,2-b]pyridazin-6-yl)pyrimidine-2,4(1H,3H)-dione]	1.32
CC1CN(C(=O)c2cccc([C@H]3C[C@@H]3c3cc(-c4c[nH]c(=O)[nH]c4=O)nn4ccnc34)c2)C1 (racemic) [Example 295, 5-(8-((1S,2S)-2-(3-(3-methylazetidine-1-carbonyl)phenyl)cyclopropyl)imidazo[1,2-b]pyridazin-6-yl)pyrimidine-2,4(1H,3H)-dione]	1.97

Second part, the compound after the results:

EC50 [nM]	Compound
8.23	COC(=O)c1ccc([C@H]2C[C@@H]2c2cc(-c3c[nH]c(=O)[nH]c3=O)nn3ccnc23)cc1 (racemic) [Example 281, methyl 4-((2S,2S)-2-(6-(2,4-dioxo-1,2,3,4-tetrahydropyrimidin-5-yl)imidazo[1,2-b]pyridazin-8-yl)cyclopropyl)benzoate]
2.99	CNC(=O)c1ccc([C@H]2C[C@@H]2c2cc(-c3c[nH]c(=O)[nH]c3=O)nn3ccnc23)cc1 (racemic) [Example 285, 4-((2S,2S)-2-(6-(2,4-dioxo-1,2,3,4-tetrahydropyrimidin-5-yl)imidazo[1,2-b]pyridazin-8-yl)cyclopropyl)-N-methylbenzamide]
35.7	CN(C)C(=O)c1ccc([C@H]2C[C@@H]2c2cc(-c3c[nH]c(=O)[nH]c3=O)nn3ccnc23)cc1 (racemic) [Example 288, 4-((2S,2S)-2-(6-(2,4-dioxo-1,2,3,4-tetrahydropyrimidin-5-yl)imidazo[1,2-b]pyridazin-8-yl)cyclopropyl)-N,N-dimethylbenzamide]
7.24	O=C(c1ccc([C@H]2C[C@@H]2c2cc(-c3c[nH]c(=O)[nH]c3=O)nn3ccnc23)cc1)N1CCC1 (racemic) [Example 289, 5-(8-((2S,2S)-2-(4-(azetidine-1-carbonyl)phenyl)cyclopropyl)imidazo[1,2-b]pyridazin-6-yl)pyrimidine-2,4(1H,3H)-dione]
9.64	CC1CN(C(=O)c2ccc([C@H]3C[C@@H]3c3cc(-c4c[nH]c(=O)[nH]c4=O)nn4ccnc34)cc2)C1 (racemic) [Example 290, 5-(8-((2S,2S)-2-(4-(3-methylazetidine-1-carbonyl)phenyl)cyclopropyl)imidazo[1,2-b]pyridazin-6-yl)pyrimidine-2,4(1H,3H)-dione]
5.72	O=C(c1ccc([C@H]2C[C@@H]2c2cc(-c3c[nH]c(=O)[nH]c3=O)nn3ccnc23)cc1)N1CC(F)(F)C1 (racemic) [Example 292, 5-(8-((1S,2S)-2-(4-(3,3-difluoroazetidine-1-carbonyl)phenyl)cyclopropyl)imidazo[1,2-b]pyridazin-6-yl)pyrimidine-2,4(1H,3H)-dione]
8.8	CC1(C)CN(C(=O)c2ccc([C@H]3C[C@@H]3c3cc(-c4c[nH]c(=O)[nH]c4=O)nn4ccnc34)cc2)C1 (racemic) [Example 293, 5-(8-((2S,2S)-2-(4-(3,3-dimethylazetidine-1-carbonyl)phenyl)cyclopropyl)imidazo[1,2-b]pyridazin-6-yl)pyrimidine-2,4(1H,3H)-dione]
